Experimental data taken from paper PMC5030124 (Nature chemical biology, 2016).

Columns and labels:
LNCaP-AR cells = experiment: Prostate cancer cell proliferation assay, LNCaP-AR; details: 7 days, increasing doses, no R1881
[1] = system: AR target gene expression in LNCaP-AR cells; experiment: Real-time PCR of AR target genes in LNCaP-AR cells; format: cell-based; details: CBs 20 μM, Enz 10 μM; for AR target gene expression, absence of R1881: Bic 10 μM
[2] = system: AR recruitment to KLK3 and NKX3-1 regulatory regions in LNCaP-AR cells; experiment: Chromatin immunoprecipitation assay, LNCaP-AR cells; format: cell-based; details: Enz 10 μM, Bic 10 μM, 10 20 μM, R1881 0.1 nM
in vivo = details: NSG, mouse, ip
[3] = system: AR subcellular distribution in HEK293 cells expressing wt-AR; experiment: High content imaging of AR N/C ratio, HEK293 cells expressing wt-AR; details: R1881 0.1 nM, Enz 20 μM, 10 20 μM
[4] = system: AR subcellular distribution in VCaP cells; experiment: High content imaging of AR N/C ratio, VCaP cells; details: R1881 0.1 nM, Enz 20 μM, 10 20 μM
[5] = system: nuclear AR in HEK293 cells expressing wt-AR; experiment: Cellular fractionation assay, HEK293 cells expressing wt-AR; format: cell-based; details: 4 hours, R1881 0.1 nM

| Structure (SMILES) | cell growth of LNCaP-AR cells (LNCaP-AR cells) | AR target gene expression, absence of R1881 [1] | recruitment of AR to DNA (ChIP) [2] | MTD (in vivo) [mg/kg] | AR target gene expression, presence of R1881 ([1]; R1881 0.1 nM) | AR nuclear-to-cytoplasmic (N/C) ratio [3] | AR nuclear-to-cytoplasmic (N/C) ratio [4] | AR in nuclear and cytoplasmic fractions [5] |
| --- | --- | --- | --- | --- | --- | --- | --- | --- |
| CC(O)(CS(=O)(=O)c1ccc(F)cc1)C(=O)Nc1ccc(C#N)c(C(F)(F)F)c1 (stereo not drawn) [Bic, bicalutamide] | promoted cellular proliferation | partial agonist | facilitated AR recruitment to DNA | – | – | – | – | – |
| CNC(=O)c1ccc(N2C(=S)N(c3ccc(C#N)c(C(F)(F)F)c3)C(=O)C2(C)C)cc1F [Enz, enzalutamide] | without effect | did not promote AR target gene transcription | without effect | 15 | reversed androgen-stimulated gene expression | – | – | – |
| C[C@]1(O)CC[C@H]2[C@@H]3CCC4=CC(=O)CCC4=C3C=C[C@@]21C [R1881] | – | – | facilitated AR recruitment to DNA | – | – | increase in AR nuclear-to-cytoplasmic (N/C) ratio | increase in AR nuclear-to-cytoplasmic (N/C) ratio | movement of AR from the cytoplasmic to nuclear fraction |
